In patent US9440982B2 (Eolas Therapeutics, Inc., priority 2012, dated 2016):

How the values were obtained:
OX1 = molecular target: T1, OX1 (Homo sapiens, UniProt O43613); test: Orexin receptor cell-based functional assay, [Ca2+]i by FLIPR, CHO-OX1 cells; settings: CHO-OX1 cells, [Ca2+]i by FLIPR, antagonist dose-range 0.1 nM-10 μM, EC90 of OXA; read-out: OX1
T1 construct: expressed in transfected cells; host or cells: CHO (CHO-OX1, kept under selection antibiotic)
T1 sequence (O43613 1-425): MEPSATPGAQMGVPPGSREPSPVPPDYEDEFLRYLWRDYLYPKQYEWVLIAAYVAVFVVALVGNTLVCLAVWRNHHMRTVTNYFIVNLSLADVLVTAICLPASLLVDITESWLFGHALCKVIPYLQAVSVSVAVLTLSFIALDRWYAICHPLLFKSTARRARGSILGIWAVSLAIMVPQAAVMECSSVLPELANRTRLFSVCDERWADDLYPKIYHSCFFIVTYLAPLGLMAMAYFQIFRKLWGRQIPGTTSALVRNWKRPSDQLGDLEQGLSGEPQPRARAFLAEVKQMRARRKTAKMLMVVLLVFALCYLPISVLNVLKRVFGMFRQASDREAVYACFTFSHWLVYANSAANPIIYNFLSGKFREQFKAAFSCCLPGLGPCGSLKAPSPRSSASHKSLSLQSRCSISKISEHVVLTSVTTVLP
Outline: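 CHO cells expressing human OX1 or OX2 loaded with calcium dye plus 2.5 mM probenecid at 37° C (calcium4, 30 min, or calcium6, 2 h), then exposed to compounds (0.1 nM-10 μM) for 30 min. Intracellular Ca2+ measured on FLIPR; antagonist format.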

CYP3A4 = molecular target: T2, CYP3A4 (Homo sapiens, UniProt P08684); test: Cytochrome P450 inhibition assay (midazolam hydroxylation); type: in vitro ADME; settings: human, human liver microsomes, probe midazolam (hydroxylation to 1′-hydroxymidazolam), 10 μM test compound, midazolam at approximately its Km
T2 construct: pre-incubated with human liver microsomes and NADPH; from tissue; host or cells: human liver microsomes
T2 sequence (P08684 whole entry): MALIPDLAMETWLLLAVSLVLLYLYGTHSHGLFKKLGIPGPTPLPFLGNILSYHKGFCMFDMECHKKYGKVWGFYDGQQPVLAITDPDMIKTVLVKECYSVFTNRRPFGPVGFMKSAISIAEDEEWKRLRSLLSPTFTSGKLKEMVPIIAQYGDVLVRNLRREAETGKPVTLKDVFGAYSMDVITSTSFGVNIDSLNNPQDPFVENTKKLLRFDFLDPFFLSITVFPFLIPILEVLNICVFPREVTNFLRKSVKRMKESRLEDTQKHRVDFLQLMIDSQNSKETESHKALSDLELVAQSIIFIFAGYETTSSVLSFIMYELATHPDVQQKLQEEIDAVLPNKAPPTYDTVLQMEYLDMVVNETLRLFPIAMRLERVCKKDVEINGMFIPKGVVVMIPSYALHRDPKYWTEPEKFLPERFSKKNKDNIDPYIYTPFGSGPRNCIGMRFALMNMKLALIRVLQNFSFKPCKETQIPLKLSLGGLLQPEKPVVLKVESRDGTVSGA
Outline: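 Human liver microsomes; CYP3A4 activity as midazolam 1′-hydroxylation with substrate near Km, with or without 10 μM test compound, read as percent inhibition. For time-dependent inhibition, parallel samples were preincubated 30 min with NADPH before substrate, and percent inhibition compared with non-preincubated samples.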

Row | SMILES | IC50 (OX1) | inhibition at 10 µM (CYP3A4)
1 | Cc1ccc(-c2ncccn2)c(C(=O)N2CCC[C@@H](C)[C@H]2CNc2ncc(C(F)(F)F)cn2)n1 [Example A184, ((2S,3R)-3-Methyl-2-(((5-(trifluoromethyl)pyrimidin-2-yl)amino)methyl)piperidin-1-yl)(6-methyl-3-(pyrimidin-2-yl)pyridin-2-yl)methanone] | 5 nM | 34%
2 | Cc1ccc(-c2cnn(C)c2)c(C(=O)N2CCC[C@@H](C)[C@H]2CNc2ncccc2C)c1 [Example A100, ((2S,3R)-3-Methyl-2-(((3-methylpyridin-2-yl)amino)methyl)piperidin-1-yl)(5-methyl-2-(1-methyl-1H-pyrazol-4-yl)phenyl)methanone] | 1300 nM | 85%
3 | Cc1ccc(-n2nccn2)c(C(=O)N2CCC[C@@H](C)[C@H]2CNc2ccc(C(F)(F)F)nn2)n1 [Example A176, ((2S,3R)-3-Methyl-2-(((6-(trifluoromethyl)pyridazin-3-yl)amino)methyl)piperidin-1-yl)(6-methyl-3-(2H-1,2,3-triazol-2-yl)pyridin-2-yl)methanone] | 6 nM | 37%
4 | Cc1ccc(-c2ncccn2)c(C(=O)N2CCC[C@@H](C)[C@H]2CNc2ccc(C(F)(F)F)nn2)c1 [Example A137, ((2S,3R)-3-Methyl-2-(((6-(trifluoromethyl)pyridazin-3-yl)amino)methyl)piperidin-1-yl)(5-methyl-2-(pyrimidin-2-yl)phenyl)methanone] | 31 nM | 47%
5 | Cc1ccc(-n2cccn2)c(C(=O)N2CCC[C@@H](C)[C@H]2CNc2ccc(C(F)(F)F)nn2)c1 [Example A157, ((2S,3R)-3-mMethyl-2-(((6-(trifluoromethyl)pyridazin-3-yl)amino)methyl)piperidin-1-yl)(5-methyl-2-(1H-pyrazol-1-yl)phenyl)methanone] | 110 nM | 77%
6 | Cc1ccc(-n2nccn2)c(C(=O)N2CCC[C@@H](C)[C@H]2CNc2ncc(C#N)cn2)c1 [Example A134, 2-((((2S,3R)-3-Methyl-1-(5-methyl-2-(2H-1,2,3-triazol-2-yl)benzoyl)piperidin-2-yl)methyl)amino)pyrimidine-5-carbonitrile] | 150 nM | 50%
7 | Cc1ccc(-n2nccn2)c(C(=O)N2CCC[C@@H](C)[C@H]2CNc2ccc(C#N)nn2)c1 [Example A145, 6-((((2S,3R)-3-Methyl-1-(5-methyl-2-(2H-1,2,3-triazol-2-yl)benzoyl)piperidin-2-yl)methyl)amino)pyridazine-3-carbonitrile] | > 1000 nM | 48%
8 | Cc1ccc(-c2ccccn2)c(C(=O)N2CCC[C@@H](C)[C@H]2CNc2ccc(Cl)cn2)c1 [Example A117, ((2S,3R)-2-(((5-chloropyridin-2-yl)amino)methyl)-3-methylpiperidin-1-yl)(5-methyl-2-(pyridin-2-yl)phenyl)methanone] | 37 nM | 92%
9 | Cc1ccc(-n2ccc(C)n2)c(C(=O)N2CCC[C@@H](C)[C@H]2CNc2ccc(Cl)cn2)c1 [Example A120, ((2S,3R)-2-(((5-Chloropyridin-2-yl)amino)methyl)-3-methylpiperidin-1-yl)(5-methyl-2-(3-methyl-1H-pyrazol-1-yl)phenyl)methanone] | 21 nM | 90%
10 | Cc1ccc(-n2ncc(C)n2)c(C(=O)N2CCC[C@@H](C)[C@H]2CNc2nnc(C(F)(F)F)s2)c1 [Example A135, ((2S,3R)-3-Methyl-2-(((5-(trifluoromethyl)-1,3,4-thiadiazol-2-yl)amino)methyl)piperidin-1-yl)(5-methyl-2-(4-methyl-2H-1,2,3-triazol-2-yl)phenyl)methanone] | 21 nM | 80%
11 | C[C@@H]1CCCN(C(=O)c2cc(F)c(F)cc2-n2nccn2)[C@@H]1CNc1ncc(Cl)cn1 [Example A247, ((2S,3R)-2-(((5-Chloropyrimidin-2-yl)amino)methyl)-3-methylpiperidin-1-yl)(4,5-difluoro-2-(2H-1,2,3-triazol-2-yl)phenyl)methanone] | > 100 nM | 65%
